14 molecules from patent EP4578856A1, “HETEROCYCLIC COMPOUND” (Ubience Inc., priority 2022, dated 2024) can be followed below.

Structures are written as SMILES.

Broadly, the IC50 is the concentration at which inhibition is half-maximal. What is called inhibition is the drop in the measured response relative to a control, in per cent. A lower inhibition goes with a weak effect.

Test [1] concerns the target T1, ROCK2 protein (Homo sapiens, UniProt O75116). The test can be described thus: ROCK2 kinase inhibitory activity, mobility shift assay (MSA, Carna Biosciences). The class given is biochemical. Details: GST (N); purchased Carna Biosciences, Inc; host or cells: baculovirus expression system. Particulars: ROCK2 kinase. The method, then:
The ROCK2 kinase inhibitory activity was measured using a mobility shift assay (MSA) provided by Carna Biosciences, Inc.
The test compound was dissolved in DMSO and further diluted with DMSO to prepare a solution having a concentration 100 times the evaluation concentration. The solution was further diluted 25 times with an assay buffer (20 mmol/L HEPES, 0.01% Triton (registered trademark) X-100, 1 mmol/L DTT, pH 7.5) to obtain a test compound solution.
The human ROCK2 kinase was expressed by fusing the catalytic domain (1 to 553 amino acids of Accession No. NP_004841.2) with GST at the N-terminus using the baculovirus expression system. GST-ROCK2 was purified by glutathione sepharose chromatography.
A 4-fold concentration substrate (LIMKtide, 1000 nmol/L) /ATP (5 µmol/L)/metal solution (Mg, 5 mmol/L) was prepared with kit buffer (20 mmol/L HEPES, 0.01% Triton (registered trademark) X-100, 5 mmol/L DTT, pH 7.5). A 2-fold concentration kinase solution was prepared with assay buffer. 5 µL of a 4-fold concentration test compound solution, 5 µL of a 4-fold concentration substrate/ATP/metal solution, and 10 µL of a 2-fold concentration kinase solution were mixed in a well of a polypropylene 384 well plate, and the mixture was reacted at room temperature for 1 hour. 70 µL of termination buffer (127 mmol/L HEPES, 0.01% Triton (registered trademark) X-100, 26.7 mmol/L EDTA-2Na, 1% DMSO, pH 7.5) was added to stop the reaction. The substrate peptide and the phosphorylated peptide in the reaction solution were separated and quantified using a LabChip (trademark) system (Perkin Elmer).
The kinase reaction was evaluated by the product ratio (P/(P + S)) calculated from the substrate peptide peak height (S) and the phosphorylated peptide peak height (P).
The average signal of the control well including all the reaction components was set to 0% suppression, the average signal of the background well (no enzyme added) was set to 100% suppression, and the inhibition rate was calculated from the average signal of the test compound test well.
The ROCK2 inhibition rate and the evaluation concentration of the test compound are shown in Table 4-1, and the IC50 value of the inhibitory activity is shown in Table 4-2. […]
Target sequence in this assay (O75116 1-553): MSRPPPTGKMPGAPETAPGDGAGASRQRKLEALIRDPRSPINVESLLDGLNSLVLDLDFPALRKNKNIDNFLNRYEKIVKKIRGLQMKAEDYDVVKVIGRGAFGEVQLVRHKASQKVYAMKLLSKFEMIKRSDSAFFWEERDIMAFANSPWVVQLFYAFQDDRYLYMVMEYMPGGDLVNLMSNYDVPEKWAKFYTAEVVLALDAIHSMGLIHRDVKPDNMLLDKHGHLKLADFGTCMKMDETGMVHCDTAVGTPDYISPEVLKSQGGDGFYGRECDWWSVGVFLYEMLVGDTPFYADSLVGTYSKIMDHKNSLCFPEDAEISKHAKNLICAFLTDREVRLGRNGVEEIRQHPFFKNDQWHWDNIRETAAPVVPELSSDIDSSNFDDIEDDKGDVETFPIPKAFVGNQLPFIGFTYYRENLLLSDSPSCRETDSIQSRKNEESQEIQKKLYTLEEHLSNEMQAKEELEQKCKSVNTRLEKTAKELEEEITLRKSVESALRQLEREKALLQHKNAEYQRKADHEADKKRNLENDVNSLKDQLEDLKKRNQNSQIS

Test [2] has as its target T1, ROCK2 protein. The experiment in a line: Degradation inducing activity of ROCK2 protein in HUVEC cells, Western blotting (Simple Western JESS). The test is classed as cell-based. Also noted: endogenous in cells; host or cells: HUVEC (ATCC CRL-1730). Particulars: HUVEC, 24 h; for inhibition at 1 µM: degradation rate at 1 µM; for inhibition at 10 µM: degradation rate at 10 µM. The gist of the method:
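HUVEC cells treated 24 h with compound at 10 µM or 1 µM, then lysed; ROCK2 quantified by capillary Western (Simple Western JESS) using rabbit mAb D1B1, normalized to total loaded protein. Degradation rate (%) calculated relative to DMSO control set at 100%, binned A ≥75%, B 50–75%, C 25–50%, D <25%.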
Target sequence in this assay (O75116 whole entry): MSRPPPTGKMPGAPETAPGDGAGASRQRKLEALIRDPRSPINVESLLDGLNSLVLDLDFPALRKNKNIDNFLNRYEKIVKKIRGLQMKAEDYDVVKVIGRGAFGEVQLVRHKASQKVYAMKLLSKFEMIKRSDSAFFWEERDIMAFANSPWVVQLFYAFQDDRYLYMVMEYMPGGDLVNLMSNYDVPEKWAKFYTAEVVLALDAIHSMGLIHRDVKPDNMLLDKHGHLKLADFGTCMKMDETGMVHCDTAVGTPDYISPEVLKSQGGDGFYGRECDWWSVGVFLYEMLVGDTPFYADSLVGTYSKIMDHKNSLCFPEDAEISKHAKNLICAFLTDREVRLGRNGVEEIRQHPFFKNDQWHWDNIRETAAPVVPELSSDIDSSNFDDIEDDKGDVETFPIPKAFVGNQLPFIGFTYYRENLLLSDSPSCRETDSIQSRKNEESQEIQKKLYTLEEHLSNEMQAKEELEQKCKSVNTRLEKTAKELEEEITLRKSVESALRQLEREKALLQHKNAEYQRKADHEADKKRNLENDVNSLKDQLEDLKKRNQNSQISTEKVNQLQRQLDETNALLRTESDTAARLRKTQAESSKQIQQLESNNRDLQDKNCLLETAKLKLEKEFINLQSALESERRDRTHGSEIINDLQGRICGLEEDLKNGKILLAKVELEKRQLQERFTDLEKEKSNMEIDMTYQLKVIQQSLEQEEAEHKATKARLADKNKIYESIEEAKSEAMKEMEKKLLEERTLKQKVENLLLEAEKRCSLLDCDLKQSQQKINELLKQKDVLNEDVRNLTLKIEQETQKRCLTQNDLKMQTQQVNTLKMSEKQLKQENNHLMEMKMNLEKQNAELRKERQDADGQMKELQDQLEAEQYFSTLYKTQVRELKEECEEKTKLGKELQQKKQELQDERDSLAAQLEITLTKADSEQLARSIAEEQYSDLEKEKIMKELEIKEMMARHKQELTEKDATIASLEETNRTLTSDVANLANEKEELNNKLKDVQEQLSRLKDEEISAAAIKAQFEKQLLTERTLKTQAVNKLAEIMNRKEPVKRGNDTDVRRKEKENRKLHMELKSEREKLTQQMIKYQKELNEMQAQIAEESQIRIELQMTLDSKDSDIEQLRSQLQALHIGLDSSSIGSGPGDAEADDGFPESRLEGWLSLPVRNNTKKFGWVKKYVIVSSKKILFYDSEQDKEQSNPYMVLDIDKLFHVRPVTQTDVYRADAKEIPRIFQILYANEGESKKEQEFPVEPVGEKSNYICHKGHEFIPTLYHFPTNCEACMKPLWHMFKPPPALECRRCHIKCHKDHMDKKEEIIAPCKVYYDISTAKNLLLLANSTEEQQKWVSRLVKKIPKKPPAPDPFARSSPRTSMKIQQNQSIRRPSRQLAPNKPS
Background: A western blot detects proteins with antibodies after separation by electrophoresis.

Take `COCCOCCNC[C@@H](C(=O)Nc1ccc2cnccc2c1)c1ccccc1` [Ref.Example 14, (S)-N-(Isoquinolin-6-yl)-3-((2-(2-methoxyethoxy)ethyl)amino)-2-phenylpropanamide, reference compound]: the IC50 at ROCK2 protein [1] was less than 30 nM.

Turning to `COCCOCCCN[C@H](C)c1ccc(C(=O)Nc2ccncc2)cc1` [Ref.Example 11, (R)-4-(1-((3-(2-Methoxyethoxy)propyl)amino)ethyl)-N-(pyridin-4-yl)benzamide, reference compound], the IC50 at ROCK2 protein [1] is 3000 to 10000 nM.

As for `COCCOCCCN[C@H](Cc1cccc(F)c1)C(=O)Nc1ccc(-c2ccncc2)cc1` [Ref.Example 13, (R)-3-(3-Fluorophenyl)-2-((3-(2-methoxyethoxy)propyl)amino)-N-(4-(pyridin-4-yl)phenyl)propanamide, reference compound], the IC50 at ROCK2 protein [1] was in the range of 30 to 300 nM.

For the molecule `COCCOCCN[C@H](Cc1cccc(F)c1)C(=O)Nc1ccc(-c2ccncc2)cc1` [Ref.Example 12, (R)-3-(3-Fluorophenyl)-2-((2-(2-methoxyethoxy)ethyl)amino)-N-(4-(pyridin-4-yl)phenyl)propanamide, reference compound], at ROCK2 protein [1], the IC50 was 300 to 3000 nM.

For the molecule `COCCOCCN[C@H](C)c1ccc(C(=O)Nc2ccncc2)cc1` [Ref.Example 10, (R)-4-(1-((2-(2-Methoxyethoxy)ethyl)amino)ethyl)-N-(pyridin-4-yl)benzamide, reference compound], at ROCK2 protein [1], the IC50 lay within 3000 to 10000 nM.

With `COC[C@H]1CN[C@H](C)CN1CC(=O)N1CC(C)(C)c2ncc(Cc3cccc(OCCOCCOCCOCCOCCOCCOCCOCCN[C@H](C)c4ccc(C(=O)Nc5ccncc5)cc4)c3)cc21` [Example 49, 4-((R)-26-(3-((1-(2-((2R,5R)-2-(Methoxymethyl)-5-methylpiperazin-1-yl)acetyl)-3,3-dimethyl-2,3-dihydro-1H-pyrrolo[3,2-b]pyridin-6-yl)methyl)phenoxy)-6,9,12,15,18,21,24-heptaoxa-3-azahexacosan-2-yl)-N-(pyridin-4-yl)benzamide], on ROCK2 protein [2], the inhibition at 1 µM is not below 75% and the inhibition at 10 µM fell in the range of 50 to 75%.

`COC[C@H]1CN[C@H](C)CN1CC(=O)N1CC(C)(C)c2nc(CN(C)CCOCCOCCOCCOCCOCCOCCN[C@H](C)c3ccc(C(=O)Nc4ccncc4)cc3)c(Cc3ccc(F)cc3)cc21` [Example 27, 4-((R)-1-(6-(4-Fluorobenzyl)-1-(2-((2R,5R)-2-(methoxymethyl)-5-methylpiperazin-1-yl)acetyl)-3,3-dimethyl-2,3-dihydro-1H-pyrrolo[3,2-b]pyridin-5-yl)-2-methyl-5,8,11,14,17,20-hexaoxa-2,23-diazapentacosan-24-yl)-N-(pyridin-4-yl)benzamide]: at ROCK2 protein [2], the inhibition at 1 µM is less than 25% and the inhibition at 10 µM was less than 25%.

At ROCK2 protein [2], `COC[C@H]1CN[C@H](C)CN1CC(=O)N1CC(C)(C)c2nc(CN(C)CCOCCOCCOCCOCCOCCOCCOCCNC[C@@H](C(=O)Nc3ccc4cnccc4c3)c3ccccc3)c(Cc3ccc(F)cc3)cc21` [Example 42, (S)-1-(6-(4-Fluorobenzyl)-1-(2-((2R,5R)-2-(methoxymethyl)-5-methylpiperazin-1-yl)acetyl)-3,3-dimethyl-2,3-dihydro-1H-pyrrolo[3,2-b]pyridin-5-yl)-N-(isoquinolin-6-yl)-2-methyl-28-phenyl-5,8,11,14,17,20,23-heptaoxa-2,26-diazanonacosan-29-amide] yielded an inhibition at 1 µM of 50 to 75% and an inhibition at 10 µM not below 75%.

Turning to `COC[C@H]1CN[C@H](C)CN1CC(=O)N1CC(C)(C)c2nc(CN(C)CCOCCOCCN[C@H](Cc3cccc(F)c3)C(=O)Nc3ccc(-c4ccncc4)cc3)c(Cc3ccc(F)cc3)cc21` [Example 30, (R)-12-(3-Fluorobenzyl)-1-(6-(4-fluorobenzyl)-1-(2-((2R,5R)-2-(methoxymethyl)-5-methylpiperazin-1-yl)acetyl)-3,3-dimethyl-2,3-dihydro-1H-pyrrolo[3,2-b]pyridin-5-yl)-2-methyl-N-(4-(pyridin-4-yl)phenyl)-5,8-dioxa-2,11-diazatridecan-13-amide], on ROCK2 protein [2], the inhibition at 1 µM was less than 25% and the inhibition at 10 µM was less than 25%.

Take `COCCOCCCNC[C@@H](C(=O)Nc1ccc2cnccc2c1)c1ccccc1` [Ref.Example 15, (S)-N-(Isoquinolin-6-yl)-3-((3-(2-methoxyethoxy)propyl)amino)-2-phenylpropanamide, reference compound]: at ROCK2 protein [1], the IC50 is less than 30 nM.

On to `COC[C@H]1CN[C@H](C)CN1CC(=O)N1CC(C)(C)c2ncc(Cc3cccc(OCCOCCOCCNC[C@@H](C(=O)Nc4ccc5cnccc5c4)c4ccccc4)c3)cc21` [Example 58, (S)-N-(Isoquinolin-6-yl)-3-((2-(2-(2-(3-((1-(2-((2R,5R)-2-(methoxymethyl)-5-methylpiperazin-1-yl)acetyl)-3,3-dimethyl-2,3-dihydro-1H-pyrrolo[3,2-b]pyridin-6-yl)methyl)phenoxy)ethoxy)ethoxy)ethyl)amino)-2-phenylpropanamide], for which, on ROCK2 protein [2], the inhibition at 1 µM is 50 to 75% and the inhibition at 10 µM was not below 75%.

`COC[C@H]1CN[C@H](C)CN1CC(=O)N1CC(C)(C)c2ncc(Cc3cccc(OCCOCCOCCOCCOCCN[C@H](C)c4ccc(C(=O)Nc5ccncc5)cc4)c3)cc21` [Example 46, 4-((R)-17-(3-((1-(2-((2R,5R)-2-(Methoxymethyl)-5-methylpiperazin-1-yl)acetyl)-3,3-dimethyl-2,3-dihydro-1H-pyrrolo[3,2-b]pyridin-6-yl)methyl)phenoxy)-6,9,12,15-tetraoxa-3-azaheptadecan-2-yl)-N-(pyridin-4-yl)benzamide]: on ROCK2 protein [2], the inhibition at 1 µM lay in the range of 25 to 50% and the inhibition at 10 µM was 25 to 50%.

Take `C[C@@H]1CN(CC(=O)N2CC(C)(C)c3ncc(Cc4ccc(F)cc4)cc32)[C@@H](CN(C)CCOCCOCCOCCOCCN[C@H](C)c2ccc(C(=O)Nc3ccncc3)cc2)CN1` [Example 4, 4-((R)-1-((2R,5R)-1-(2-(6-(4-Fluorobenzyl)-3,3-dimethyl-2,3-dihydro-1H-pyrrolo[3,2-b]pyridin-1-yl)-2-oxoethyl)-5-methylpiperazin-2-yl)-2-methyl-5,8,11,14-tetraoxa-2,17-diazanonadecan-18-yl)-N-(pyridin-4-yl)benzamide]: at ROCK2 protein [2], the inhibition at 1 µM is not below 75% and the inhibition at 10 µM is not below 75%.

In the case of `COC[C@H]1CN[C@H](C)CN1CC(=O)N1CC(C)(C)c2ncc(Cc3cccc(OCCOCCN[C@H](Cc4cccc(F)c4)C(=O)Nc4ccc(-c5ccncc5)cc4)c3)cc21` [Example 50, (R)-3-(3-Fluorophenyl)-2-((2-(2-(3-((1-(2-((2R,5R)-2-(methoxymethyl)-5-methylpiperazin-1-yl)acetyl)-3,3-dimethyl-2,3-dihydro-1H-pyrrolo[3,2-b]pyridin-6-yl)methyl)phenoxy)ethoxy)ethyl)amino)-N-(4-(pyridin-4-yl)phenyl)propanamide], at ROCK2 protein [2], the inhibition at 1 µM lay in the range of 25 to 50% and the inhibition at 10 µM is not below 75%.
